How the values were obtained:
Assay in all cases: relative viability (nuclei count vs DMSO), 5 days (fraction); higher = more cells survive
[1] = compound: COc1cc(Nc2ncc3c(n2)-c2ccc(Cl)cc2C(c2c(F)cccc2OC)=NC3)ccc1C(=O)O [Alisertib] + CC(C)C[C@H](NC(=O)[C@H](Cc1ccccc1)NC(=O)c1cnccn1)B(O)O [Bortezomib] (partner 0.002 µM)
How it was run: (§1)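 One day after seeding in 1536-well plates, lung cancer cell lines were dosed by pin tool. Dosing was either single-drug or a fixed anchor-drug dose plus five library-drug doses (not always all listed) in √10 steps. After 5 days, nuclei were stained in one fix-and-stain step and counted on 4× images, and relative viability is the nuclei count of treated wells over that of vehicle wells, given as the median of duplicate plates.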

[2] = compound: COc1cc(Nc2ncc3c(n2)-c2ccc(Cl)cc2C(c2c(F)cccc2OC)=NC3)ccc1C(=O)O [Alisertib] + NC(=O)Nc1cc(-c2cccc(F)c2)sc1C(=O)N[C@H]1CCCNC1 [AZD7762] (partner 0.2 µM)
How it was run: as §1

[3] = compound: COc1cc(Nc2ncc3c(n2)-c2ccc(Cl)cc2C(c2c(F)cccc2OC)=NC3)ccc1C(=O)O [Alisertib] + Cc1cc(Nc2cc(N3CCN(C)CC3)nc(Sc3ccc(NC(=O)C4CC4)cc3)n2)n[nH]1 [Tozasertib] (partner 0.1 µM)
How it was run: as §1

[4] = compound: COc1cc(Nc2ncc3c(n2)-c2ccc(Cl)cc2C(c2c(F)cccc2OC)=NC3)ccc1C(=O)O [Alisertib] + Nc1ncn([C@H]2C[C@H](O)[C@@H](CO)O2)c(=O)n1 [Decitabine] (partner 2 µM)
How it was run: as §1

Row | Cell Line | relative viability ([1]; first compound 0.005 µM) | relative viability ([1]; first compound 0.01581 µM) | relative viability ([1]; first compound 0.05 µM) | relative viability ([1]; first compound 0.1581 µM) | relative viability ([1]; first compound 0.5 µM) | relative viability ([2]; first compound 0.005 µM) | relative viability ([2]; first compound 0.01581 µM) | relative viability ([2]; first compound 0.05 µM) | relative viability ([2]; first compound 0.1581 µM) | relative viability ([2]; first compound 0.5 µM) | relative viability ([3]; first compound 0.005 µM) | relative viability ([3]; first compound 0.01581 µM) | relative viability ([3]; first compound 0.05 µM) | relative viability ([3]; first compound 0.1581 µM) | relative viability ([3]; first compound 0.5 µM) | relative viability ([4]; first compound 0.005 µM) | relative viability ([4]; first compound 0.01581 µM) | relative viability ([4]; first compound 0.05 µM) | relative viability ([4]; first compound 0.1581 µM) | relative viability ([4]; first compound 0.5 µM)
1 | LOU-NH91 | 0.509 | 0.427 | 0.388 | 0.364 | 0.405 | 0.759 | 0.721 | 0.585 | 0.436 | 0.393 | 0.656 | 0.652 | 0.47 | 0.364 | 0.337 | 0.799 | 0.77 | 0.651 | 0.524 | 0.45
2 | NCI-H3122 | 0.987 | 1.04 | 0.865 | 0.47 | 0.308 | 0.973 | 0.78 | 0.776 | 0.259 | 0.203 | 0.384 | 0.315 | 0.235 | 0.27 | 0.191 | 0.376 | 0.412 | 0.375 | 0.192 | 0.161
3 | RERF-LC-KJ | 0.945 | 1.05 | 0.879 | 0.293 | 0.304 | 0.798 | 0.799 | 0.801 | 0.236 | 0.214 | 0.511 | 0.386 | 0.253 | 0.27 | 0.218 | 0.731 | 0.443 | 0.258 | 0.173 | 0.247
4 | NCI-H1651 | 0.87 | 0.928 | 0.526 | 0.339 | 0.194 | 0.456 | 0.455 | 0.385 | 0.199 | 0.129 | 0.492 | 0.617 | 0.273 | 0.269 | 0.205 | 0.557 | 0.433 | 0.339 | 0.182 | 0.161
5 | NCI-H2087 | 0.88 | 0.702 | 0.186 | 0.172 | 0.199 | 1.17 | 1.29 | 0.293 | 0.214 | 0.185 | 0.204 | 0.249 | 0.126 | 0.158 | 0.144 | 0.246 | 0.268 | 0.149 | 0.126 | 0.0842

Reference: the supplement of paper PMC10307832
